Data from PubChem BioAssay (NCI).
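Assay format: 96-well plates, 48-hour exposure. At the TGI there is no net growth.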

Key:
Experiment in all cases: growth of human tumour cells (NCI), 48 h
786-0 renal = test system: 786-0 renal
A498 renal = test system: A498 renal
A549 NSCLC = test system: A549 NSCLC
ACHN renal = test system: ACHN renal
CAKI-1 renal = test system: CAKI-1 renal
CCRF-CEM leukemia = test system: CCRF-CEM leukemia
DLD-1 colon = test system: DLD-1 colon
DMS 114 small cell lung = test system: DMS 114 small cell lung
DMS 273 small cell lung = test system: DMS 273 small cell lung
EKVX NSCLC = test system: EKVX NSCLC
HCC-2998 colon = test system: HCC-2998 colon
HCT-116 colon = test system: HCT-116 colon
HCT-15 colon = test system: HCT-15 colon
HL-60(TB) leukemia = test system: HL-60(TB) leukemia
HOP-18 NSCLC = test system: HOP-18 NSCLC
HOP-62 NSCLC = test system: HOP-62 NSCLC
HOP-92 NSCLC = test system: HOP-92 NSCLC
HT29 colon = test system: HT29 colon
IGROV1 ovarian = test system: IGROV1 ovarian
K-562 leukemia = test system: K-562 leukemia
KM12 colon = test system: KM12 colon
KM20L2 colon = test system: KM20L2 colon
LOX IMVI melanoma = test system: LOX IMVI melanoma
LXFL 529 NSCLC = test system: LXFL 529 NSCLC
M14 melanoma = test system: M14 melanoma
M19-MEL melanoma = test system: M19-MEL melanoma
MALME-3M melanoma = test system: MALME-3M melanoma
MOLT-4 leukemia = test system: MOLT-4 leukemia
NCI-H23 lung = test system: NCI-H23 lung
NCI-H460 lung = test system: NCI-H460 lung
NCI-H522 lung = test system: NCI-H522 lung
OVCAR-4 ovarian = test system: OVCAR-4 ovarian
OVCAR-5 ovarian = test system: OVCAR-5 ovarian
OVCAR-8 ovarian = test system: OVCAR-8 ovarian
RPMI-8226 leukemia = test system: RPMI-8226 leukemia
RXF 393 renal = test system: RXF 393 renal
RXF-631 renal = test system: RXF-631 renal
SF-268 CNS = test system: SF-268 CNS
SF-295 CNS = test system: SF-295 CNS
SF-539 CNS = test system: SF-539 CNS
SK-MEL-2 melanoma = test system: SK-MEL-2 melanoma
SK-MEL-28 melanoma = test system: SK-MEL-28 melanoma
SK-MEL-5 melanoma = test system: SK-MEL-5 melanoma
SK-OV-3 ovarian = test system: SK-OV-3 ovarian
SN12C renal = test system: SN12C renal
SNB-19 CNS = test system: SNB-19 CNS
SNB-75 CNS = test system: SNB-75 CNS
SNB-78 CNS = test system: SNB-78 CNS
SR leukemia = test system: SR leukemia
SW-620 colon = test system: SW-620 colon
TK-10 renal = test system: TK-10 renal
U251 CNS = test system: U251 CNS
UACC-257 melanoma = test system: UACC-257 melanoma
UACC-62 melanoma = test system: UACC-62 melanoma
UO-31 renal = test system: UO-31 renal
XF 498 CNS = test system: XF 498 CNS
COLO 205 colon = test system: COLO 205 colon
NCI-H226 lung = test system: NCI-H226 lung
OVCAR-3 ovarian = test system: OVCAR-3 ovarian
DU-145 prostate = test system: DU-145 prostate
HS 578T breast = test system: HS 578T breast
MCF7 breast = test system: MCF7 breast
MDA-MB-231 breast = test system: MDA-MB-231 breast
MDA-MB-435 = test system: MDA-MB-435
MDA-N = test system: MDA-N
NCI/ADR-RES ovarian = test system: NCI/ADR-RES ovarian
PC-3 prostate = test system: PC-3 prostate
T-47D breast = test system: T-47D breast

SMILES: CCCCCCCCCCNC(=S)OCCCC
- TGI (786-0 renal): 76.3 µM
- TGI (A498 renal): 62.6 µM
- TGI (A549 NSCLC): 73.6 µM
- TGI (ACHN renal): 69.3 µM
- TGI (CAKI-1 renal): 61.1 µM
- TGI (CCRF-CEM leukemia): 37.6 µM
- TGI (DLD-1 colon): 85.4 µM
- TGI (DMS 114 small cell lung): 45.8 µM
- TGI (DMS 273 small cell lung): 42.3 µM
- TGI (EKVX NSCLC): 65.8 µM
- TGI (HCC-2998 colon): 57 µM
- TGI (HCT-116 colon): 34.7 µM
- TGI (HCT-15 colon): 39.7 µM
- TGI (HL-60(TB) leukemia): 31.2 µM
- TGI (HOP-18 NSCLC): 81.5 µM
- TGI (HOP-62 NSCLC): 68.7 µM
- TGI (HOP-92 NSCLC): 41.1 µM
- TGI (HT29 colon): 37.4 µM
- TGI (IGROV1 ovarian): 87.3 µM
- TGI (K-562 leukemia): 36.6 µM
- TGI (KM12 colon): 29.9 µM
- TGI (KM20L2 colon): 37.7 µM
- TGI (LOX IMVI melanoma): 29.8 µM
- TGI (LXFL 529 NSCLC): 55.6 µM
- TGI (M14 melanoma): 52.4 µM
- TGI (M19-MEL melanoma): > 100 µM
- TGI (MALME-3M melanoma): 54.8 µM
- TGI (MOLT-4 leukemia): 32.6 µM
- TGI (NCI-H23 lung): 53.9 µM
- TGI (NCI-H460 lung): 43.5 µM
- TGI (NCI-H522 lung): 42.4 µM
- TGI (OVCAR-4 ovarian): > 100 µM
- TGI (OVCAR-5 ovarian): 29 µM
- TGI (OVCAR-8 ovarian): > 100 µM
- TGI (RPMI-8226 leukemia): 34.9 µM
- TGI (RXF 393 renal): 59.5 µM
- TGI (RXF-631 renal): 87.1 µM
- TGI (SF-268 CNS): 58.7 µM
- TGI (SF-295 CNS): > 100 µM
- TGI (SF-539 CNS): 48.3 µM
- TGI (SK-MEL-2 melanoma): 27.7 µM
- TGI (SK-MEL-28 melanoma): 72.2 µM
- TGI (SK-MEL-5 melanoma): 33.3 µM
- TGI (SK-OV-3 ovarian): 77.3 µM
- TGI (SN12C renal): 38.2 µM
- TGI (SNB-19 CNS): > 100 µM
- TGI (SNB-75 CNS): 86.7 µM
- TGI (SNB-78 CNS): 88.4 µM
- TGI (SR leukemia): 38 µM
- TGI (SW-620 colon): 35.2 µM
- TGI (TK-10 renal): 45 µM
- TGI (U251 CNS): 37.5 µM
- TGI (UACC-257 melanoma): 49.3 µM
- TGI (UACC-62 melanoma): 53.1 µM
- TGI (UO-31 renal): 60.3 µM
- TGI (XF 498 CNS): 39.8 µM

SMILES: O=[N+]([O-])c1cc([N+](=O)[O-])c(C(Cl)C(Cl)c2ccccc2)cc1C(Cl)C(Cl)c1ccccc1 (stereo unspecified)
- TGI (786-0 renal): 3.12 µM
- TGI (A498 renal): 3.33 µM
- TGI (A549 NSCLC): 4.51 µM
- TGI (ACHN renal): 3.55 µM
- TGI (CAKI-1 renal): 3.25 µM
- TGI (CCRF-CEM leukemia): 5.96 µM
- TGI (COLO 205 colon): 3.18 µM
- TGI (DLD-1 colon): 3.27 µM
- TGI (DMS 114 small cell lung): 3.34 µM
- TGI (DMS 273 small cell lung): 4.08 µM
- TGI (EKVX NSCLC): 4.28 µM
- TGI (HCC-2998 colon): 3.33 µM
- TGI (HCT-116 colon): 2.69 µM
- TGI (HCT-15 colon): 3.12 µM
- TGI (HL-60(TB) leukemia): > 100 µM
- TGI (HOP-18 NSCLC): 3.53 µM
- TGI (HOP-62 NSCLC): 11.9 µM
- TGI (HOP-92 NSCLC): 3.26 µM
- TGI (HT29 colon): 4.67 µM
- TGI (IGROV1 ovarian): 7.53 µM
- TGI (K-562 leukemia): 3.58 µM
- TGI (KM12 colon): 3.76 µM
- TGI (KM20L2 colon): 4.22 µM
- TGI (LOX IMVI melanoma): 3.57 µM
- TGI (LXFL 529 NSCLC): 2.87 µM
- TGI (M14 melanoma): 2.93 µM
- TGI (M19-MEL melanoma): 3.62 µM
- TGI (MALME-3M melanoma): 3.31 µM
- TGI (MOLT-4 leukemia): > 23.3 µM
- TGI (NCI-H226 lung): 5.18 µM
- TGI (NCI-H23 lung): 3.72 µM
- TGI (NCI-H522 lung): 3.39 µM
- TGI (OVCAR-3 ovarian): 5.06 µM
- TGI (OVCAR-4 ovarian): 7.28 µM
- TGI (OVCAR-5 ovarian): 4.43 µM
- TGI (OVCAR-8 ovarian): 4.62 µM
- TGI (RPMI-8226 leukemia): 8.38 µM
- TGI (RXF 393 renal): 2.73 µM
- TGI (RXF-631 renal): > 21.1 µM
- TGI (SF-268 CNS): 4.02 µM
- TGI (SF-295 CNS): 5.17 µM
- TGI (SF-539 CNS): 3.33 µM
- TGI (SK-MEL-2 melanoma): 3.86 µM
- TGI (SK-MEL-28 melanoma): 3.95 µM
- TGI (SK-MEL-5 melanoma): 3.29 µM
- TGI (SK-OV-3 ovarian): 80.1 µM
- TGI (SN12C renal): 3.49 µM
- TGI (SNB-19 CNS): 6.53 µM
- TGI (SNB-75 CNS): 5.17 µM
- TGI (SNB-78 CNS): 9.72 µM
- TGI (SR leukemia): > 100 µM
- TGI (SW-620 colon): 3.46 µM
- TGI (TK-10 renal): 4.23 µM
- TGI (U251 CNS): 3.26 µM
- TGI (UACC-257 melanoma): 4.09 µM
- TGI (UACC-62 melanoma): 3.7 µM
- TGI (UO-31 renal): 2.93 µM
- TGI (XF 498 CNS): 3.55 µM

SMILES: COc1ccc(NC(=O)CC(=O)n2nc(-c3ccccc3)c(N=Nc3ccccc3C)c2-c2ccccc2)cc1
- TGI (786-0 renal): 35.5 µM
- TGI (A498 renal): 52.6 µM
- TGI (A549 NSCLC): 41.7 µM
- TGI (ACHN renal): 63.7 µM
- TGI (CAKI-1 renal): > 64.8 µM
- TGI (CCRF-CEM leukemia): > 100 µM
- TGI (COLO 205 colon): 99.8 µM
- TGI (DLD-1 colon): 82.5 µM
- TGI (DMS 114 small cell lung): 49.7 µM
- TGI (DMS 273 small cell lung): 41.2 µM
- TGI (DU-145 prostate): > 100 µM
- TGI (EKVX NSCLC): 45.2 µM
- TGI (HCC-2998 colon): > 100 µM
- TGI (HCT-116 colon): 47.9 µM
- TGI (HCT-15 colon): > 61.3 µM
- TGI (HL-60(TB) leukemia): > 100 µM
- TGI (HOP-18 NSCLC): > 100 µM
- TGI (HOP-62 NSCLC): 33.8 µM
- TGI (HOP-92 NSCLC): 34.9 µM
- TGI (HS 578T breast): 35.6 µM
- TGI (HT29 colon): > 100 µM
- TGI (IGROV1 ovarian): 46.2 µM
- TGI (K-562 leukemia): > 100 µM
- TGI (KM12 colon): > 100 µM
- TGI (KM20L2 colon): > 100 µM
- TGI (LOX IMVI melanoma): > 100 µM
- TGI (LXFL 529 NSCLC): > 100 µM
- TGI (M14 melanoma): > 100 µM
- TGI (M19-MEL melanoma): > 100 µM
- TGI (MALME-3M melanoma): 81.9 µM
- TGI (MCF7 breast): > 100 µM
- TGI (MDA-MB-231 breast): > 100 µM
- TGI (MDA-MB-435): > 100 µM
- TGI (MDA-N): > 100 µM
- TGI (MOLT-4 leukemia): > 100 µM
- TGI (NCI-H226 lung): 63.7 µM
- TGI (NCI-H23 lung): 51.1 µM
- TGI (NCI-H460 lung): 53.5 µM
- TGI (NCI-H522 lung): 47.8 µM
- TGI (NCI/ADR-RES ovarian): > 100 µM
- TGI (OVCAR-3 ovarian): 33.3 µM
- TGI (OVCAR-4 ovarian): 59.5 µM
- TGI (OVCAR-5 ovarian): > 100 µM
- TGI (OVCAR-8 ovarian): 66 µM
- TGI (PC-3 prostate): 32.8 µM
- TGI (RPMI-8226 leukemia): > 100 µM
- TGI (RXF 393 renal): 33.4 µM
- TGI (RXF-631 renal): > 100 µM
- TGI (SF-268 CNS): 35.7 µM
- TGI (SF-295 CNS): 45.6 µM
- TGI (SF-539 CNS): 28.8 µM
- TGI (SK-MEL-2 melanoma): 56.9 µM
- TGI (SK-MEL-28 melanoma): > 63.2 µM
- TGI (SK-MEL-5 melanoma): > 86.5 µM
- TGI (SK-OV-3 ovarian): 36.3 µM
- TGI (SN12C renal): > 88.5 µM
- TGI (SNB-19 CNS): > 69.7 µM
- TGI (SNB-75 CNS): 36.6 µM
- TGI (SR leukemia): > 100 µM
- TGI (SW-620 colon): > 62.3 µM
- TGI (T-47D breast): 57.7 µM
- TGI (TK-10 renal): 47.2 µM
- TGI (U251 CNS): 35.3 µM
- TGI (UACC-257 melanoma): > 100 µM
- TGI (UACC-62 melanoma): 46.6 µM
- TGI (UO-31 renal): > 92 µM
- TGI (XF 498 CNS): 33.3 µM
